Assay results as given in patent US20050220819A1, “Novel binding epitopes for helicobacter pylori and use thereof” (priority 2002, published 2005).
Entries after “also recorded” stand apart in the source; their conditions may differ.

Legend:
[1] = system: Helicobacter pylori; assay: TLC bacterial overlay assay: binding of radiolabeled Helicobacter pylori to glycosphingolipids, neoglycolipids and glycolipid derivatives on thin-layer plates; settings: for binding activity of neoglycolipids with regard to Helicobacter pylori (in words): oligosaccharides reductively aminated to lipid anchor (4-hexadecylaniline); for binding activity of neoglycolipids with regard to Helicobacter pylori (in words) / binding of glycolipid derivatives with regard to Helicobacter pylori (in words): TLC overlay assay; for binding of Helicobacter pylori to purified glycosphingolipids (in words): strain 032, overlay assay on thin-layer plates
[2] = system: Helicobacter pylori binding to human gastrointestinal cell lines; settings: Simon et al., 1999; cited from earlier work
[3] = system: Helicobacter pylori; settings: Mysore et al., 2000; cited from earlier work

CC(=O)NC1C(O)OC(CO)C(OC2OC(CO)C(O)C(OC3OC(CO)C(OC4OC(CO)C(O)C(O)C4NC(C)=O)C(O)C3NC(C)=O)C2O)C1O (stereo not shown) [GalNAcβ4GlcNAcβ3Galβ4GlcNAc]
binding activity of neoglycolipids with regard to Helicobacter pylori (in words) [1]: clear binding activity

CC(=O)NC1C(OC2C(O)C(CO)OC(OC3C(CO)OC(O)C(O)C3O)C2O)OC(CO)C(OC2OC(CO)C(O)C(OC3OC(CO)C(O)C(O)C3O)C2O)C1O (stereo not shown) [Galα3Galβ4GlcNAcβ3Galβ4Glc]
binding activity of neoglycolipids with regard to Helicobacter pylori (in words) [1]: clear binding activity

CC(=O)N[C@H]1[C@H](OC[C@H]2OC(O)[C@H](NC(C)=O)[C@@H](O)[C@@H]2O)O[C@H](CO)[C@@H](O[C@@H]2O[C@H](CO)[C@H](O)[C@H](O)[C@H]2O)[C@@H]1O (stereo partly shown) [Galβ4GlcNAcβ6GlcNAc]
binding activity of neoglycolipids with regard to Helicobacter pylori (in words) [1]: clear binding activity

CNC(=O)C1OC(OC2C(O)C(CO)OC(OC3C(CO)OC(OCC4OC(O)C(NC(C)=O)C(O)C4O)C(NC(C)=O)C3O)C2O)C(O)C(O)C1O (stereo not drawn) [Glc(A-methylamide)β3Galβ4GlcNAcβ6GlcNAc]
binding activity of neoglycolipids with regard to Helicobacter pylori (in words) [1]: strong binding activity

CC(=O)NC1C(OC2C(O)C(CO)OC(OC3C(CO)OC(O)C(O)C3O)C2O)OC(CO)C(OC2OC(CO)C(O)C(OC3OC(C(=O)O)C(O)C(O)C3O)C2O)C1O (stereo not shown) [GlcAβ3Galβ4GlcNAcβ3Galβ4Glc]
binding activity of neoglycolipids with regard to Helicobacter pylori (in words) [1]: clear binding activity

CC(=O)NC1C(O)OC(CO)C(OC2OC(CO)C(O)C(OC3OC(CO)C(O)C(O)C3NC(C)=O)C2O)C1O (stereo not shown) [GlcNAcβ3Galβ4GlcNAc]
binding activity of neoglycolipids with regard to Helicobacter pylori (in words) [1]: weakly binding or inactive

CC(=O)NC1C(O)OC(COC2OC(CO)C(OC3OC(CO)C(O)C(OC4OC(CO)C(O)C(O)C4NC(C)=O)C3O)C(O)C2NC(C)=O)C(O)C1O (stereo not shown) [GlcNAcβ3Galβ4GlcNAcα6GlcNAc]
binding activity of neoglycolipids with regard to Helicobacter pylori (in words) [1]: weakly binding or inactive | binding activity of neoglycolipids with regard to Helicobacter pylori (in words) ([1]; listed as GlcNAcα3Galβ4GlcNAcα6GlcNAc): inactive or very weakly active

CC(=O)N[C@H]1[C@H](O[C@H]2[C@@H](O)[C@@H](CO)O[C@@H](O[C@H]3[C@H](O)[C@@H](O)C(O)O[C@@H]3CO)[C@@H]2O)O[C@H](CO)[C@@H](O[C@@H]2O[C@H](CO)[C@H](O)[C@@H](O[C@@H]3O[C@H](CO)[C@@H](O)[C@H](O)[C@H]3NC(C)=O)[C@H]2O)[C@@H]1O (stereo partly shown) [GlcNAcβ3Galβ4GlcNAcβ3Galβ4Glc]
binding activity of neoglycolipids with regard to Helicobacter pylori (in words) [1]: clear binding activity

CC(=O)NC1C(OC2C(O)C(CO)OC(OC3C(CO)OC(OC4C(O)C(O)OC(CO)C4O)C(NC(C)=O)C3O)C2O)OC(CO)C(O)C1O (stereo not shown) [GlcNAcβ3Galβ4GlcNAcβ3Man]
binding activity of neoglycolipids with regard to Helicobacter pylori (in words) [1]: clear binding activity

CC(=O)N[C@H]1[C@H](OC[C@H]2OC(O)[C@H](O)[C@@H](O)[C@H]2O)O[C@H](CO)[C@@H](O[C@@H]2O[C@H](CO)[C@H](O)[C@H](O[C@@H]3O[C@H](CO)[C@@H](O)[C@H](O)[C@H]3NC(C)=O)[C@H]2O)[C@@H]1O (stereo partly shown) [GlcNAcβ3Galβ4GlcNAcβ6Gal]
binding activity of neoglycolipids with regard to Helicobacter pylori (in words) [1]: some binding activity; also recorded: strong binding activity

CC(=O)N[C@H]1[C@H](OC[C@H]2O[C@@H](O[C@H]3[C@H](O)[C@@H](O)C(O)O[C@@H]3CO)[C@H](O)[C@@H](O)[C@H]2O)O[C@H](CO)[C@@H](O[C@@H]2O[C@H](CO)[C@H](O)[C@H](O[C@@H]3O[C@H](CO)[C@@H](O)[C@H](O)[C@H]3NC(C)=O)[C@H]2O)[C@@H]1O (stereo partly shown) [GlcNAcβ3Galβ4GlcNAcβ6Galβ4Glc]
binding activity of neoglycolipids with regard to Helicobacter pylori (in words) [1]: weakly binding or inactive; also recorded: binding activity was strongly reduced

CC(=O)N[C@H]1[C@H](OC[C@H]2OC(O)[C@H](NC(C)=O)[C@@H](O)[C@@H]2O)O[C@H](CO)[C@@H](O[C@@H]2O[C@H](CO)[C@H](O)[C@H](O[C@@H]3O[C@H](CO)[C@@H](O)[C@H](O)[C@H]3NC(C)=O)[C@H]2O)[C@@H]1O (stereo partly shown) [GlcNAcβ3Galβ4GlcNAcβ6GlcNAc]
binding activity of neoglycolipids with regard to Helicobacter pylori (in words) [1]: high affinity binding; also recorded: strong binding activity

GalNAcβ3Galα3Galβ4GlcNAcβ3Galβ4Glcβ1Cer [No. 25, reference compound]
binding of Helicobacter pylori to purified glycosphingolipids (in words) [1]: non-binding

GalNAcβ3Galβ4GlcNAcβ3Galβ4Glcβ1Cer [No. 11, reference compound]
binding of Helicobacter pylori to purified glycosphingolipids (in words) [1]: binding was also found

Galα3Galβ4GlcNAcβ3Galβ4Glcβ1Cer [No. 13, reference compound]
binding of Helicobacter pylori to purified glycosphingolipids (in words) [1]: binding-active

Glc(A-NH2)β3GalNAcβ4Glc(A-NH2)β3GalNAc
binding activity of neoglycolipids with regard to Helicobacter pylori (in words) [1]: strong binding activity

Glc(A-benzylamide)β3 Galβ4GlcNAcβ3Galβ4GlcβCer
binding of glycolipid derivatives with regard to Helicobacter pylori (in words) [1]: binding active | binding strength towards H. pylori when comparing dilution series of glycolipids on TLC (in words) [1]: binding effectively

Glc(A-ethylamide)β3 Galβ4GlcNAcβ3Galβ4GlcβCer
binding of glycolipid derivatives with regard to Helicobacter pylori (in words) [1]: binding active | binding strength towards H. pylori when comparing dilution series of glycolipids on TLC (in words) [1]: about equally strong binders and best among the four amide derivatives

Glc(A-methylamide)β3Galβ4GlcNAcβ3Galβ4GlcβCer
binding of glycolipid derivatives with regard to Helicobacter pylori (in words) [1]: binding active | binding strength towards H. pylori when comparing dilution series of glycolipids on TLC (in words) [1]: very strong binding

Glc(A-octadecylamide)β3Galβ4GlcNAcβ3Galβ4GlcβCer
binding of glycolipid derivatives with regard to Helicobacter pylori (in words) [1]: binding active | binding strength towards H. pylori when comparing dilution series of glycolipids on TLC (in words) [1]: binding effectively

GlcAβ3GalNAcβ4GlcAβ3GalNAcβ4GlcAβ3GalNAc
binding activity of neoglycolipids with regard to Helicobacter pylori (in words) [1]: clear binding activity

GlcAβ3Galβ4GlcNAcβ3Galβ4GlcβCer [reference compound]
binding of glycolipid derivatives with regard to Helicobacter pylori (in words) [1]: binding active

GlcAβ3Galβ4GlcNAcβ6GlcNAc
binding activity of neoglycolipids with regard to Helicobacter pylori (in words) [1]: clear binding activity

Glcβ3Galβ4GlcNAcβ3Galβ4GlcβCer
binding of glycolipid derivatives with regard to Helicobacter pylori (in words) [1]: binding active | binding strength towards H. pylori when comparing dilution series of glycolipids on TLC (in words) [1]: strong binding

NeuAcα3GalNAcβ3Galβ4GlcNAcβ3Galβ4Glcβ1Cer [No. 24, reference compound]
binding of Helicobacter pylori to purified glycosphingolipids (in words) [1]: non-binding

maltoheptaose [reference compound]
binding activity of neoglycolipids with regard to Helicobacter pylori (in words) [1]: weakly binding or inactive

sialyl-lactose
inhibition of Helicobacter pylori binding to human gastrointestinal cell lines [2]: inhibits | efficacy in rhesus monkey animal model of the infection [3]: effective
